Patent US10428080B2, “TBK/IKK inhibitor compounds and uses thereof” (Merck Patent GmbH, priority 2015, dated 2019)
pIC50: −log10 of the molar value. Where a name gives a salt, the structure may show the parent alone.

What was measured:
[1] = system: phosphorylation of the IRF-3 protein in MDA-MB-468 cells; experiment: pIRF3 immunocytochemistry cell based assay; conditions: Homo sapiens; MDA-MB-468 cells, Poly(I:C) stimulation; read-out: pIRF3 IC50
Description: The purpose of the pIRF3 immunocytochemistry cell based assay was to identify small molecules which modulates TBK/IKKe kinase activity through on target substrate phosphorylation of the IRF-3 protein. On the first day of the experiment, MDA-MB-468 cells were plated in 384 well, black, clear-bottom, Poly D lysine coated plates at a density of 5000 cells/well in 45 ul of complete DMEM and allowed to adhere overnight. On the second day compounds were added to cells at a starting concentration of 10 uM with a serial dilution of 3-fold for a total of 10 points. The cells were incubated for 1 hr at 37° C. Cells were then stimulated with Poly(I:C) at a final concentration of 10 ug/ml, and were incubated for 2 hr at 37° C. Following the incubation, media was removed from the wells and the cells were fixed with 4% PFA for 15 min at RT. Cells were washed at least 3 times with PBS, and then permeabilized with ice-cold methanol for 10 min at RT. The washing step was repeated and the cells were then blocked using 10% goat serum/1% BSA, made up in PBS and allowed to incubate at RT for 1 hr. The cells were washed again and then treated with an anti-pIRF3 antibody at 4° C. overnight (1:250 dilution of Abcam ab76493 in PBS containing 1% BSA). On the third day the primary antibody was washed off and pIRF3 was detected by adding the secondary antibody conjugated to AlexaFluor488 (1:200 dilution of secondary antibody in PBS containing 1% BSA) for 1 hr at RT. Cells were washed and then counterstained with PI/RNase staining buffer for 15 min at RT and read on the Acumen Explorer laser scanning cytometer. The percentage of phosphorylation of the IRF-3 protein was calculated using the following algorithm, a modified version of the mean half width intensity (pIRF3 staining)/(PI staining or # of cells)×100%). IC50 curves were generated using the Genedata software.

TBK1 = molecular target: T1, TBK1 (Homo sapiens, UniProt Q9UHD2); experiment: TBK Biochemical Assay; conditions: read-out: TBK1 IC50
T1 sequence (Q9UHD2 1-729): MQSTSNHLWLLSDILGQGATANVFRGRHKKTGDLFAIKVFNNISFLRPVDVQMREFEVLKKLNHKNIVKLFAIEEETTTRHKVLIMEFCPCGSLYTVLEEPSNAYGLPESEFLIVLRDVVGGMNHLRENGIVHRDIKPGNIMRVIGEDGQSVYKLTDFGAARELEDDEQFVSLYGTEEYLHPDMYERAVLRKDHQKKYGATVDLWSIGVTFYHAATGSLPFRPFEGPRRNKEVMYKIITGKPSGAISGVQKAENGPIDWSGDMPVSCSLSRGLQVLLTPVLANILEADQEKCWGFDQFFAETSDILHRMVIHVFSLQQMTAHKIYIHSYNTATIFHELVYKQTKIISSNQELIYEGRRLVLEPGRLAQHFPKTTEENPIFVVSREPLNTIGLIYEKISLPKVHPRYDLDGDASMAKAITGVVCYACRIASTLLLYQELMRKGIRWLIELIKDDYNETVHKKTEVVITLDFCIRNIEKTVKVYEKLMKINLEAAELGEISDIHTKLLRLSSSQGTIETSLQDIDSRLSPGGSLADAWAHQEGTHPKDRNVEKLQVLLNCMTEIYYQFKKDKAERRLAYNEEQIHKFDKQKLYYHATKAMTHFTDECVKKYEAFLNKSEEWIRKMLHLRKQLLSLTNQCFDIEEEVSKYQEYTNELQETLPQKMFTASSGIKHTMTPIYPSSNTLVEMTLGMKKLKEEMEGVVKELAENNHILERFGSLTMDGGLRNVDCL
Summary of the method: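 TBK1 enzyme and substrate incubated with compounds (10-point 1:4 dilution, top 30 uM final, 1% DMSO) for 90 min at 25° C, then stopped. Substrate/product peaks read by microfluidic mobility-shift (Caliper LabChip); 10 uM staurosporine as full-inhibition control.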

IKKε = molecular target: T2, IKKε (Homo sapiens, UniProt Q14164); experiment: IKKe Biochemical Assay; conditions: read-out: IKKε IC50
T2 sequence (Q14164 1-716): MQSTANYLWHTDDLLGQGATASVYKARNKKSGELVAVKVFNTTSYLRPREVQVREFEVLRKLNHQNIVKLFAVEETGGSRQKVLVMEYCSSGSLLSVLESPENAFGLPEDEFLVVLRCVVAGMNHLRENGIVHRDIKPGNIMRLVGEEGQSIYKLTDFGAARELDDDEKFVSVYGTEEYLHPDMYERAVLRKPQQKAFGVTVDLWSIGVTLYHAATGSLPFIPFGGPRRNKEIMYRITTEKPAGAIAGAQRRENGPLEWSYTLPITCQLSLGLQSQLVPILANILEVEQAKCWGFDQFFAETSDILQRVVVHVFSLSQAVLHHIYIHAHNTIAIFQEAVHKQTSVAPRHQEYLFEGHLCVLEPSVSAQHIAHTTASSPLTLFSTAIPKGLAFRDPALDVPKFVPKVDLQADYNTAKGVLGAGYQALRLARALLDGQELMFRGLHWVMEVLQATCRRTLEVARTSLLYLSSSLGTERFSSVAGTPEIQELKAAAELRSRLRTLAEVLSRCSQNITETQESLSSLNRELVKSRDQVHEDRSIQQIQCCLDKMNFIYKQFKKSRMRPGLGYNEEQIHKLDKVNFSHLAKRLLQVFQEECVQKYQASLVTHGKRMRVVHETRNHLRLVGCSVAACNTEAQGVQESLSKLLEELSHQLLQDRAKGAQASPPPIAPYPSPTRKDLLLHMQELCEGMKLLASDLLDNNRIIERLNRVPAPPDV
Summary of the method: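 Recombinant IKKε and substrate were incubated with compound (10-point 1:4 series, top 30 uM final, 1% DMSO) for 90 min at 25° C, then stopped. Substrate-to-product conversion was read by LabChip microfluidic mobility shift; 10 uM staurosporine served as full-inhibition wells.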

SMILES | pIC50 [1] | pIC50 (TBK1) | pIC50 (IKKε)
COc1cc(C(=O)N(C)C)ccc1-c1cc2nccc(-c3ccc(C(C)(C)N4CCOCC4)c(C#N)c3)c2o1 [Compound 291, 4-(7-[3-cyano-4-[2-(morpholin-4-yl)propan-2-yl]phenyl]furo[3,2-b]pyridin-2-yl)-3-methoxy-N,N-dimethylbenzamide hydrochloride] | < 5.30 |  | 
COc1cc(C(=O)N(C)C)cnc1-c1cc2ncc(C3CC3)c(-c3ccc(OC4CCOCC4)c(C#N)n3)c2o1 [Compound 357, 6-[7-[6-cyano-5-(oxan-4-yloxy)pyridin-2-yl]-6-cyclopropylfuro[3,2-b]pyridin-2-yl]-5-methoxy-N,N-dimethylpyridine-3-carboxamide hydrochloride] |  | < 5.30 | < 5.30
COc1cc(C(=O)N(C)C)cnc1-c1cc2ncc(OC)c(-c3ccc(NC4CCOCC4)c(C#N)n3)c2o1 [Compound 358, 6-(7-[6-cyano-5-[(oxan-4-yl)amino]pyridin-2-yl]-6-methoxyfuro[3,2-b]pyridin-2-yl)-5-methoxy-N,N-dimethylpyridine-3-carboxamide] |  | 5.30 to 6.00 | 5.30 to 6.00
COc1cc(C(=O)N(C)CCO)cnc1-c1cc2ncc(C)c(-c3ccc(OC4CCOCC4)c(C#N)n3)c2o1 [Compound 360, 6-[7-[6-cyano-5-(oxan-4-yloxy)pyridin-2-yl]-6-methylfuro[3,2-b]pyridin-2-yl]-N-(2-hydroxyethyl)-5-methoxy-N-methylpyridine-3-carboxamide hydrochloride] |  | 6.00 to 7.00 | 6.00 to 7.00
COc1cc(C(=O)N(C)CCO)cnc1-c1cc2ncc(OC)c(-c3ccc(OC4CCOCC4)c(C#N)n3)c2o1 [Compound 362, 6-[7-[6-cyano-5-(oxan-4-yloxy)pyridin-2-yl]-6-methoxyfuro[3,2-b]pyridin-2-yl]-N-(2-hydroxyethyl)-5-methoxy-N-methylpyridine-3-carboxamide] |  | 6.00 to 7.00 | 6.00 to 7.00
COc1cc(C(=O)N(C)CCO)cnc1-c1cc2ncc(C3CC3)c(-c3ccc(OC4CCOCC4)c(C#N)n3)c2o1 [Compound 363, 6-[7-[6-cyano-5-(oxan-4-yloxy)pyridin-2-yl]-6-cyclopropylfuro[3,2-b]pyridin-2-yl]-N-(2-hydroxyethyl)-5-methoxy-N-methylpyridine-3-carboxamide hydrochloride] |  | < 5.30 | < 5.30
COc1cc(C(=O)N(C)CCO)ncc1-c1cc2nccc(-c3cc(C#N)c(OC4CCOCC4)cn3)c2o1 [Compound 377, 5-[7-[4-cyano-5-(oxan-4-yloxy)pyridin-2-pyridin-2-yl]furo[3,2-b]pyridin-2-yl]-N-(2-hydroxyethyl)-4-methoxy-N-methylpyridine-2-carboxamide] |  | 6.00 to 7.00 | 6.00 to 7.00
COc1cc(C(=O)N2CCCCC2)ncc1-c1cc2nccc(-c3cc(C#N)c(OC4CCOCC4)cn3)c2o1 [Compound 383, 2-(2-[4-methoxy-6-[(piperidin-1-yl)carbonyl]pyridin-3-yl]furo[3,2-b]pyridin-7-yl)-5-(oxan-4-yloxy)pyridine-4-carbonitrile] |  | 6.00 to 7.00 | 6.00 to 7.00
COc1cc(C(=O)N(C)C)ncc1-c1cc2nccc(-c3cc(C#N)c(OC4CCOCC4)cn3)c2o1 [Compound 386, 5-[7-[4-cyano-5-(oxan-4-yloxy)pyridin-2-yl]furo[3,2-b]pyridin-2-yl]-4-methoxy-N,N-dimethylpyridine-2-carboxamide] |  | 6.00 to 7.00 | 6.00 to 7.00
COc1cc(-c2cc3nccc(-c4ccc(NC5CCOCC5)c(C#N)c4)c3o2)ncc1C(=O)N(C)C [Compound 392, 6-(7-[3-cyano-4-[(oxan-4-yl)amino]phenyl]furo[3,2-b]pyridin-2-yl)-4-methoxy-N,N-dimethylpyridine-3-carboxamide] |  | 6.00 to 7.00 | 6.00 to 7.00
COc1cc(C(=O)N(C)C)cnc1-c1cc2nccc(-c3ncc(OC4CCOCC4)c(C#N)n3)c2o1 [Compound 396, 6-[7-[4-cyano-5-(oxan-4-yloxy)pyrimidin-2-yl]furo[3,2-b]pyridin-2-yl]-5-methoxy-N,N-dimethylpyridine-3-carboxamide] |  | 6.00 to 7.00 | 6.00 to 7.00
COc1cc(C(=O)N(C)C)ccc1-c1cc2nccc(Nc3ccc(OC4CCOCC4)c(C#N)c3)c2o1 [Compound 399, 4-(7-[[3-cyano-4-(oxan-4-yloxy)phenyl]amino]furo[3,2-b]pyridin-2-yl)-3-methoxy-N,N-dimethylbenzamide] |  | < 5.30 | < 5.30
COc1cc(C(=O)N2CC3COCC3C2)ncc1-c1cc2nccc(-c3ccc(NC4CCOCC4)c(C#N)c3)c2o1 (stereo not drawn) [Compound 421, 5-[2-[6-([hexahydro-1H-furo[3,4-c]pyrrol-5-yl]carbonyl)-4-methoxypyridin-3-yl]furo[3,2-b]pyridin-7-yl]-2-[(oxan-4-yl)amino]benzonitrile] |  | > 7.00 | > 7.00
COc1cc(C(=O)N2CC3CN(C)CC3C2)ncc1-c1cc2nccc(-c3ccc(N4CC[C@@H](F)C4)c(C#N)c3)c2o1 (stereo partly drawn) [Compound 453, 2-[(3R)-3-fluoropyrrolidin-1-yl]-5-[2-[4-methoxy-6-([5-methyl-octahydropyrrolo[3,4-c]pyrrol-2-yl]carbonyl)pyridin-3-yl]furo[3,2-b]pyridin-7-yl]benzonitrile] |  | > 7.00 | > 7.00
COc1cc(C(=O)NC2C3COCC32)ncc1-c1cc2nccc(-c3ccc(N4CC[C@@H](F)C4)c(C#N)c3)c2o1 (stereo partly drawn) [Compound 469, 5-(7-[3-cyano-4-[(3R)-3-fluoropyrrolidin-1-yl]phenyl]furo[3,2-b]pyridin-2-yl)-4-methoxy-N-[3-oxabicyclo[3.1.0]hexan-6-yl]pyridine-2-carboxamide] |  | > 7.00 | > 7.00
COc1cc(C(=O)NC2CC3CCC2CC3)ccc1-c1cc2nccc(-c3ccc(OC4CCOCC4)c(C#N)c3)c2o1 (stereo not drawn) [Compound 495] |  | 6.00 to 7.00 | > 7.00
COc1cc(C(=O)NC2CC3CCC2C3)ccc1-c1cc2nccc(-c3ccc(OC4CCOCC4)c(C#N)c3)c2o1 (stereo not drawn) [Compound 496] |  | > 7.00 | > 7.00
